System: strains of Enterobacteriaceae producing various carbapenemases (class A, D and B; 104 strains)
Test: Antibiotics potentiation by Compound 27 (MIC; meropenem, doripenem, ertapenem, cefepime)
Format: cell-based
Settings: + 27 = with Compound 27 at fixed 4 μg/ml

COc1ccc2c(c1C(=O)O)OB(O)C(Sc1nnc(N)s1)C2 (centres unmarked) [D + 27]
MIC (strain CF1012 Citrobacter freundii (KPC-2)): X (MIC of less than 1 μg/mL) | MIC (strain CF1021 Citrobacter freundii (CMY-type; VIM-1)): X (MIC of less than 1 μg/mL) | MIC (strain CF1022 Citrobacter freundii (SHV-12(2be), TEM-OSBL(2b); IMP-8)): X (MIC of less than 1 μg/mL) | MIC (strain CF1023 Citrobacter freundii (SHV-12(2be), TEM-OSBL(2b); CTX-M-3; CMY-34; NDM-1)): X (MIC of less than 1 μg/mL) | MIC (strain CL1080 Enterobacter cloacae (IMP-1)): X (MIC of less than 1 μg/mL) | MIC (strain EA1019 Enterobacter aerogenes (SHV-5, VIM-1)): X (MIC of less than 1 μg/mL) | MIC (strain EC1007 Escherichia coli (KPC-3)): X (MIC of less than 1 μg/mL) | MIC (strain EC1061 Escherichia coli (NDM-1, CMY-6)): X (MIC of less than 1 μg/mL) | MIC (strain EC1062 Escherichia coli (OXA-48, CTX-M-15)): X (MIC of less than 1 μg/mL) | MIC (strain EC1064 Escherichia coli (NDM-1, CMY-6, CTX-M-15)): Y (MIC of 1 μg/mL to 10 μg/mL) | MIC (strain EC1065 Escherichia coli (IMP-1)): X (MIC of less than 1 μg/mL) | MIC (strain EC1068 Escherichia coli (VIM-1)): X (MIC of less than 1 μg/mL) | MIC (strain EC1069 Escherichia coli (CTX-M-27; NDM-1)): X (MIC of less than 1 μg/mL) | MIC (strain EC1070 Escherichia coli (TEM-OSBL(2b); CMY-42; NDM-5)): X (MIC of less than 1 μg/mL) | MIC (strain EC1072 Escherichia coli (CTX-M-3; NDM-1)): X (MIC of less than 1 μg/mL) | MIC (strain ECL1004 Enterobacter cloacae (NMC-A)): X (MIC of less than 1 μg/mL) | MIC (strain ECL1026 Enterobacter cloacae (KPC-2, TEM-1)): X (MIC of less than 1 μg/mL) | MIC (strain ECL1036 Enterobacter cloacae (KPC-3, TEM-1)): X (MIC of less than 1 μg/mL) | MIC (strain ECL1045 Enterobacter cloacae (VIM-1)): Y (MIC of 1 μg/mL to 10 μg/mL) | MIC (strain ECL1055 Enterobacter cloacae (KPC-3, TEM)): X (MIC of less than 1 μg/mL) | MIC (strain ECL1057 Enterobacter cloacae (NDM-1, TEM-1, CTX-M-15)): Z (MIC of greater than 10 μg/mL) | MIC (strain ECL1058 Enterobacter cloacae (KPC-3, SHV-11, TEM-1)): X (MIC of less than 1 μg/mL) | MIC (strain ECL1059 Enterobacter cloacae (KPC-3, SHV-12, TEM-1)): X (MIC of less than 1 μg/mL) | MIC (strain ECL1061 Enterobacter cloacae (KPC-3, Hyper AmpC expression)): X (MIC of less than 1 μg/mL) | MIC (strain ECL1082 Enterobacter cloacae (VIM-1)): X (MIC of less than 1 μg/mL) | MIC (strain ECL1084 Enterobacter cloacae (CTX-M-15; ACT-16; NDM-1)): X (MIC of less than 1 μg/mL) | MIC (strain ECL1085 Enterobacter cloacae (SHV-31(2be), TEM-1(2b); CTX-M-15; NDM-1)): X (MIC of less than 1 μg/mL) | MIC (strain ECL1086 Enterobacter cloacae (VIM-31, OXA-48(c))): X (MIC of less than 1 μg/mL) | MIC (strain ECL1087 Enterobacter cloacae (VIM-1)): X (MIC of less than 1 μg/mL) | MIC (strain ECL1088 Enterobacter cloacae (TEM-1(2b); CTX-M-14; ACT-type; VIM-1)): X (MIC of less than 1 μg/mL) | MIC (strain ECL1089 Enterobacter cloacae (ACT-type; IMP-1)): Y (MIC of 1 μg/mL to 10 μg/mL) | MIC (strain ECL1090 Enterobacter cloacae (TEM-1(2b); CTX-M-22; ACT-type; IMP-8)): X (MIC of less than 1 μg/mL) | MIC (strain ECL1091 Enterobacter cloacae (VIM-1)): Y (MIC of 1 μg/mL to 10 μg/mL) | MIC (strain ECL1092 Enterobacter cloacae (TEM-OSBL(2b); ACT-32; VIM-1)): X (MIC of less than 1 μg/mL) | MIC (strain ECL1093 Enterobacter cloacae (TEM-OSBL(2b); ACT-32; VIM-1)): X (MIC of less than 1 μg/mL) | MIC (strain ECL1094 Enterobacter cloacae (VIM-1)): X (MIC of less than 1 μg/mL) | MIC (strain ECL1096 Enterobacter cloacae (CMY-4, VIM-4, OXA-48(c))): X (MIC of less than 1 μg/mL) | MIC (strain ECL1097 Enterobacter cloacae (SHV-31(2be), TEM-OSBL(2b); CTX-M-15; ACT-31; NDM-1)): X (MIC of less than 1 μg/mL) | MIC (strain ECL1098 Enterobacter cloacae (TEM-OSBL(2b); DHA-1; ACT-16; NDM-1)): X (MIC of less than 1 μg/mL) | MIC (strain KP1001 Klebsiella pneumoniae (KPC TEM SHV)): Y (MIC of 1 μg/mL to 10 μg/mL) | MIC (strain KP1002 Klebsiella pneumoniae (KPC TEM SHV)): X (MIC of less than 1 μg/mL) | MIC (strain KP1003 Klebsiella pneumoniae (KPC TEM SHV)): X (MIC of less than 1 μg/mL) | MIC (strain KP1004 Klebsiella pneumoniae (KPC-2, TEM-1, SHV-11)): X (MIC of less than 1 μg/mL) | MIC (strain KP1008 Klebsiella pneumoniae (KPC-2)): X (MIC of less than 1 μg/mL) | MIC (strain KP1014 Klebsiella pneumoniae (VIM-1, TEM, SHV)): Y (MIC of 1 μg/mL to 10 μg/mL) | MIC (strain KP1054 Klebsiella pneumoniae (VIM-1, SHV-11)): X (MIC of less than 1 μg/mL) | MIC (strain KP1059 Klebsiella pneumoniae (VIM-1, SHV-11)): Y (MIC of 1 μg/mL to 10 μg/mL) | MIC (strain KP1061 Klebsiella pneumoniae (KPC-3, SHV-11, TEM-1)): X (MIC of less than 1 μg/mL) | MIC (strain KP1064 Klebsiella pneumoniae (KPC-2, SHV-11, TEM-1)): Y (MIC of 1 μg/mL to 10 μg/mL) | MIC (strain KP1065 Klebsiella pneumoniae (VIM-1, SHV-11)): X (MIC of less than 1 μg/mL) | MIC (strain KP1070 Klebsiella pneumoniae (KPC-2, SHV-11, TEM-1)): X (MIC of less than 1 μg/mL) | MIC (strain KP1074 Klebsiella pneumoniae (KPC-3, SHV-11, TEM)): Y (MIC of 1 μg/mL to 10 μg/mL) | MIC (strain KP1081 Klebsiella pneumoniae (NDM-1, TEM-1, SHV-11, CMY-6, CTX-M-15)): X (MIC of less than 1 μg/mL) | MIC (strain KP1082 Klebsiella pneumoniae (KPC-2, SHV-1)): X (MIC of less than 1 μg/mL) | MIC (strain KP1083 Klebsiella pneumoniae (KPC-3, SHV-1, TEM-1)): X (MIC of less than 1 μg/mL) | MIC (strain KP1084 Klebsiella pneumoniae (KPC-3, SHV-11, TEM-1)): Y (MIC of 1 μg/mL to 10 μg/mL) | MIC (strain KP1086 Klebsiella pneumoniae (OXA-48, CTX-M-15, TEM, SHV)): Y (MIC of 1 μg/mL to 10 μg/mL) | MIC (strain KP1087 Klebsiella pneumoniae (KPC-2, CTX-M-15, SHV-11, TEM-1)): Y (MIC of 1 μg/mL to 10 μg/mL) | MIC (strain KP1088 Klebsiella pneumoniae (KPC-3, SHV-11, TEM-1)): X (MIC of less than 1 μg/mL) | MIC (strain KP1089 Klebsiella pneumonias (OXA-181, CTX-M-15, TEM, SHV)): X (MIC of less than 1 μg/mL) | MIC (strain KP1095 Klebsiella pneumoniae (KPC-2 TEM-1 SHV-1)): X (MIC of less than 1 μg/mL) | MIC (strain KP1096 Klebsiella pneumoniae (KPC-2 TEM-181 SHV-11)): X (MIC of less than 1 μg/mL) | MIC (strain KP1097 Klebsiella pneumonias (IMP-1)): X (MIC of less than 1 μg/mL) | MIC (strain KP1098 Klebsiella pneumoniae (IMP-26)): Y (MIC of 1 μg/mL to 10 μg/mL) | MIC (strain KP1104 Klebsiella pneumoniae (KPC TEM)): X (MIC of less than 1 μg/mL) | MIC (strain KP1105 Klebsiella pneumoniae (KPC TEM SHV)): X (MIC of less than 1 μg/mL) | MIC (strain KP1159 Klebsiella pneumoniae (SHV-1(2b); CTX-M-15; IMP-4)): X (MIC of less than 1 μg/mL) | MIC (strain KP1160 Klebsiella pneumoniae (SHV-28(2be); CTX-M-15; IMP-26)): X (MIC of less than 1 μg/mL) | MIC (strain KP1161 Klebsiella pneumoniae (NDM-1)): X (MIC of less than 1 μg/mL) | MIC (strain KP1164 Klebsiella pneumoniae (SHV-12(2be); VIM-1)): X (MIC of less than 1 μg/mL) | MIC (strain KP1165 Klebsiella pneumoniae (SHV-11(2b); CTX-M-15; VIM-27)): Z (MIC of greater than 10 μg/mL) | MIC (strain KP1166 Klebsiella pneumoniae (SHV-5(2be); VIM-26)): Y (MIC of 1 μg/mL to 10 μg/mL) | MIC (strain KP1167 Klebsiella pneumoniae (SHV-12(2be); VIM-1)): X (MIC of less than 1 μg/mL) | MIC (strain KP1169 Klebsiella pneumoniae (SHV-11(2b); VIM-1)): X (MIC of less than 1 μg/mL) | MIC (strain KP1170 Klebsiella pneumoniae (SHV-11(2b); CTX-M-15; NDM-1)): X (MIC of less than 1 μg/mL) | MIC (strain KP1172 Klebsiella pneumoniae (SHV-31(2be); DHA-1; VIM-1)): X (MIC of less than 1 μg/mL) | MIC (strain KP1173 Klebsiella pneumoniae (TEM-33(2br); CTX-M-15; IMP-1)): X (MIC of less than 1 μg/mL) | MIC (strain KP1174 Klebsiella pneumoniae (CTX-M-14; IMP-1)): X (MIC of less than 1 μg/mL) | MIC (strain KP1175 Klebsiella pneumoniae (SHV-OSBL(2b); VIM-1)): X (MIC of less than 1 μg/mL) | MIC (strain KP1177 Klebsiella pneumoniae (SHV-OSBL(2b), TEM-OSBL(2b); CTX-M-15; NDM-1)): X (MIC of less than 1 μg/mL) | MIC (strain KP1178 Klebsiella pneumoniae (SHV-OSBL(2b;) TEM-OSBL(2b); CTX-M-15; NDM-1)): X (MIC of less than 1 μg/mL) | MIC (strain KP1179 Klebsiella pneumoniae (SHV-12(2be), TEM-OSBL(2b); CTX-M-15; NDM-7)): X (MIC of less than 1 μg/mL) | MIC (strain KP1180 Klebsiella pneumoniae (SHV-OSBL(2b), TEM-OSBL(2b); CTX-M-15; DHA-1; IMP-26)): X (MIC of less than 1 μg/mL) | MIC (strain KP1181 Klebsiella pneumoniae (SHV-OSBL(2b); CTX-M-15; IMP-26)): X (MIC of less than 1 μg/mL) | MIC (strain KP1183 Klebsiella pneumoniae (SHV-OSBL(2b), TEM-OSBL(2b); CTX-M-15; NDM-1)): X (MIC of less than 1 μg/mL) | MIC (strain KP1184 Klebsiella pneumoniae (SHV-OSBL(2b); IMP-1)): X (MIC of less than 1 μg/mL) | MIC (strain KP1185 Klebsiella pneumoniae (SHV-OSBL(2b), TEM-OSBL(2b); IMP-4)): X (MIC of less than 1 μg/mL) | MIC (strain KP1186 Klebsiella pneumoniae (CTX-M-15; NDM-1)): X (MIC of less than 1 μg/mL) | MIC (strain KP1187 Klebsiella pneumoniae (SHV-55(2be), TEM-OSBL(2b); CTX-M-15; NDM-1)): X (MIC of less than 1 μg/mL) | MIC (strain KP1188 Klebsiella pneumoniae (SHV-OSBL(2b); CTX-M-15; NDM-1)): Y (MIC of 1 μg/mL to 10 μg/mL) | MIC (strain KP1189 Klebsiella pneumoniae (TEM-OSBL(2b); CTX-M-15; CTX-M-27; NDM-1)): X (MIC of less than 1 μg/mL) | MIC (strain KPM1123 Klebsiella pneumoniae (KPC-2 TEM SHV)): X (MIC of less than 1 μg/mL) | MIC (strain KPM1202 Klebsiella pneumoniae (KPC SHV TEM)): X (MIC of less than 1 μg/mL) | MIC (strain KPM1203 Klebsiella pneumoniae (KPC SHV TEM)): X (MIC of less than 1 μg/mL) | MIC (strain KPM1344 Klebsiella pneumoniae (VIM-1)): X (MIC of less than 1 μg/mL) | MIC (strain KPM1345 Klebsiella pneumoniae (VIM-1 SHV)): X (MIC of less than 1 μg/mL) | MIC (strain KPM1347 Klebsiella pneumoniae (NDM-1 SHV CTX-M-15)): X (MIC of less than 1 μg/mL) | MIC (strain KX1017 Klebsiella oxytoca (KPC-2, OXA-2, SHV-30)): X (MIC of less than 1 μg/mL) | MIC (strain KX1018 Klebsiella oxytoca (KPC-2, SHV-40, OXY-1)): X (MIC of less than 1 μg/mL) | MIC (strain KX1019 Klebsiella oxytoca (KPC-2, OXA-2)): X (MIC of less than 1 μg/mL) | MIC (strain PM1024 Proteus mirabilis (TEM-1(2b); CMY-16; VIM-1)): X (MIC of less than 1 μg/mL) | MIC (strain PM1026 Proteus mirabilis (DHA-1; IMP-26)): Y (MIC of 1 μg/mL to 10 μg/mL) | MIC (strain PM1027 Proteus mirabilis (VIM-5)): X (MIC of less than 1 μg/mL) | MIC (strain SM1023 Serratia marcescens (VIM-4)): Y (MIC of 1 μg/mL to 10 μg/mL)

From patent US10206937B2, “Boronic acid derivatives and therapeutic uses thereof” (Qpex Biopharma, Inc., priority 2014, dated 2019)
